Data taken from patent US20240217979A1, “GluN2 Subunit Selective Antagonists of the N-Methyl-D-Aspartate Receptors” (Emory University, priority 2021, published 2024).

Legend:
Type in all cases: cell-based
rat GluN1/GluN2B [1] = target: T1, rat GluN1/GluN2B (Rattus norvegicus, UniProt P35439+Q00960); test: Two-electrode voltage-clamp recording in Xenopus laevis oocytes expressing recombinant rat GluN1/GluN2B; conditions: for remaining activity at 30 µM: 30 μM test compound, current ratio, oocytes, read-out: I30 μM/Icontrol (mean ± SEM, %) GluN2B; for IC50: Tables 1 and 2, read-out: IC50 (μM) [95% Confidence Interval] GluN2B
T1 construct: expressed in transfected cells; host or cells: Xenopus laevis oocytes (cRNA injection, GluN1/GluN2 ratio 1:2)
Procedure: (§1) Two-electrode voltage-clamp recording was performed in Xenopus laevis oocytes injected with mRNA to express recombinant rat GluN1/GluN2A, GluN1/GluN2B, GluN1/GluN2C, and GluN1/GluN2D. cDNAs for rat NMDA subunits GluN1-la (GenBank U08261; hereafter GluN1), GluN2A (GenBank D13211), GluN2B (GenBank U11419), GluN2C (GenBank M91563), and GluN2D (GenBank L31611) were provided by Drs. S. Heinemann from Salk Institute, S. Nakanishi from Kyoto University, and P. Seeburg from the University of Heidelberg. An automatic injector (Nanoject II, Drummond Scientific) was used for cRNA injection using the pipettes filled with mineral oil. The cRNA that transcribed in vitro via the mMessage Machine kit (Ambion) was diluted with nuclease-free water, and then injected at a GluN1/GluN2 ratio of 1:2. The oocytes were stored in Barth's solution that contained 88 mM NaCl, 5.0 mM Tris-HCl, 2.4 mM NaHCO3, 1.0 mM KCl, 0.84 mM MgSO4, 0.41 mM CaCl2), 0.33 mM Ca(NO3)2, 0.1 mg/ml gentamycin sulfate, 1.0 U/ml penicillin, and 1 μg/ml streptomycin at pH 7.4 and temperatures of 15-17° C. for two to five days before the two-electrode voltage-clamp recordings.
(§2) During recording, the oocytes were placed in a perfusion chamber and continually washed with the recording solution containing 90 mM NaCl, 1.0 mM KCl, 0.50 mM BaCl2, 0.005 mM EDTA, and 10 mM HEPES at pH 7.4 and a temperature of 23° C. Glass electrodes with a tip resistance of 0.5 to 2.5 MΩ were obtained from thin-walled glass capillary tubes. Voltage electrodes and current electrodes were filled with 0.3 M and 3.0 M KCl, respectively. The recordings were executed with the oocytes membrane potential holding at −40 mV by an OC-725 amplifier (Warner Instrument Co.). All compounds were dissolved in dimethyl sulfoxide (DMSO) as 20 mM stock solutions and further diluted to reach the desired concentration (0.05-0.5% (vol/vol) DMSO) in recording solution comprised of 30 µM glycine and 100 µM glutamate. In general, each compound was tested in multiple oocytes. To evaluate the inhibitory efficacy of the compounds, concentration-response curves were plotted using the average two-electrode voltage-clamp recording results and fitted by the following equation:
(§3) response=100/{1+[(inhibitor concentration)/IC50]^N} • where IC50 is the concentration of compound that inhibit half maximal of the current response and N is the Hill slope.

rat GluN1/GluN2C [2] = target: T2, rat GluN1/GluN2C (Rattus norvegicus, UniProt P35439+Q00961); test: Two-electrode voltage-clamp recording in Xenopus laevis oocytes expressing recombinant rat GluN1/GluN2C; conditions: for remaining activity at 30 µM: 30 μM test compound, current ratio, oocytes, read-out: I30 μM/Icontrol (mean ± SEM, %) GluN2C; for IC50: Tables 1 and 2, read-out: IC50 (μM) [95% Confidence Interval] GluN2C
T2 construct: expressed in transfected cells; host or cells: Xenopus laevis oocytes (cRNA injection, GluN1/GluN2 ratio 1:2)
Procedure: as §1, §2, §3

rat GluN1/GluN2A [3] = target: T3, rat GluN1/GluN2A (Rattus norvegicus, UniProt P35439+Q00959); test: Two-electrode voltage-clamp recording in Xenopus laevis oocytes expressing recombinant rat GluN1/GluN2A; conditions: for remaining activity at 30 µM: 30 μM test compound, current ratio, oocytes, read-out: I30 μM/Icontrol (mean ± SEM, %) GluN2A; for IC50: Tables 1 and 2, read-out: IC50 (μM) [95% Confidence Interval] GluN2A
T3 construct: expressed in transfected cells; host or cells: Xenopus laevis oocytes (cRNA injection, GluN1/GluN2 ratio 1:2)
Procedure: as §1, §2, §3

rat GluN1/GluN2D [4] = target: T4, rat GluN1/GluN2D (Rattus norvegicus, UniProt P35439+Q62645); test: Two-electrode voltage-clamp recording in Xenopus laevis oocytes expressing recombinant rat GluN1/GluN2D; conditions: for remaining activity at 30 µM: 30 μM test compound, current ratio, oocytes, read-out: I30 μM/Icontrol (mean ± SEM, %) GluN2D; for IC50: Tables 1 and 2, read-out: IC50 (μM) [95% Confidence Interval] GluN2D
T4 construct: expressed in transfected cells; host or cells: Xenopus laevis oocytes (cRNA injection, GluN1/GluN2 ratio 1:2)
Procedure: as §1, §2, §3

rat GluN1/GluN2D [5] = target: T5, rat GluN1/GluN2D (Rattus norvegicus, UniProt Q62645); test: as above; conditions: for Subunit Selectivity 2A IC50/2D IC50: ratio of GluN2A IC50 to GluN2D IC50; for Subunit Selectivity 2B IC50/2D IC50: ratio of GluN2B IC50 to GluN2D IC50; for Current ratio I/Icontrol (mean ± SEM, %) GluN2D: current ratio reported for 10 μM test compound (footnote c)
T5 construct: expressed in transfected cells; host or cells: Xenopus laevis oocytes (cRNA injection, GluN1/GluN2 ratio 1:2)
Procedure: as §1, §2, §3

rat GluN1/GluN2B [6] = target: T6, rat GluN1/GluN2B (Rattus norvegicus, UniProt Q00960); test: Two-electrode voltage-clamp recording in Xenopus laevis oocytes expressing recombinant rat GluN1/GluN2B; conditions: current ratio reported for 10 μM test compound (footnote c)
T6 construct: expressed in transfected cells; host or cells: Xenopus laevis oocytes (cRNA injection, GluN1/GluN2 ratio 1:2)
Procedure: as §1, §2, §3

rat GluN1/GluN2C [7] = target: T7, rat GluN1/GluN2C (Rattus norvegicus, UniProt Q00961); test: Two-electrode voltage-clamp recording in Xenopus laevis oocytes expressing recombinant rat GluN1/GluN2C; conditions: current ratio reported for 10 μM test compound (footnote c)
T7 construct: expressed in transfected cells; host or cells: Xenopus laevis oocytes (cRNA injection, GluN1/GluN2 ratio 1:2)
Procedure: as §1, §2, §3

rat GluN1/GluN2A [8] = target: T8, rat GluN1/GluN2A (Rattus norvegicus, UniProt Q00959); test: Two-electrode voltage-clamp recording in Xenopus laevis oocytes expressing recombinant rat GluN1/GluN2A; conditions: current ratio reported for 10 μM test compound (footnote c)
T8 construct: expressed in transfected cells; host or cells: Xenopus laevis oocytes (cRNA injection, GluN1/GluN2 ratio 1:2)
Procedure: as §1, §2, §3

T5 sequence (Q62645 28-1323, other chains not shown): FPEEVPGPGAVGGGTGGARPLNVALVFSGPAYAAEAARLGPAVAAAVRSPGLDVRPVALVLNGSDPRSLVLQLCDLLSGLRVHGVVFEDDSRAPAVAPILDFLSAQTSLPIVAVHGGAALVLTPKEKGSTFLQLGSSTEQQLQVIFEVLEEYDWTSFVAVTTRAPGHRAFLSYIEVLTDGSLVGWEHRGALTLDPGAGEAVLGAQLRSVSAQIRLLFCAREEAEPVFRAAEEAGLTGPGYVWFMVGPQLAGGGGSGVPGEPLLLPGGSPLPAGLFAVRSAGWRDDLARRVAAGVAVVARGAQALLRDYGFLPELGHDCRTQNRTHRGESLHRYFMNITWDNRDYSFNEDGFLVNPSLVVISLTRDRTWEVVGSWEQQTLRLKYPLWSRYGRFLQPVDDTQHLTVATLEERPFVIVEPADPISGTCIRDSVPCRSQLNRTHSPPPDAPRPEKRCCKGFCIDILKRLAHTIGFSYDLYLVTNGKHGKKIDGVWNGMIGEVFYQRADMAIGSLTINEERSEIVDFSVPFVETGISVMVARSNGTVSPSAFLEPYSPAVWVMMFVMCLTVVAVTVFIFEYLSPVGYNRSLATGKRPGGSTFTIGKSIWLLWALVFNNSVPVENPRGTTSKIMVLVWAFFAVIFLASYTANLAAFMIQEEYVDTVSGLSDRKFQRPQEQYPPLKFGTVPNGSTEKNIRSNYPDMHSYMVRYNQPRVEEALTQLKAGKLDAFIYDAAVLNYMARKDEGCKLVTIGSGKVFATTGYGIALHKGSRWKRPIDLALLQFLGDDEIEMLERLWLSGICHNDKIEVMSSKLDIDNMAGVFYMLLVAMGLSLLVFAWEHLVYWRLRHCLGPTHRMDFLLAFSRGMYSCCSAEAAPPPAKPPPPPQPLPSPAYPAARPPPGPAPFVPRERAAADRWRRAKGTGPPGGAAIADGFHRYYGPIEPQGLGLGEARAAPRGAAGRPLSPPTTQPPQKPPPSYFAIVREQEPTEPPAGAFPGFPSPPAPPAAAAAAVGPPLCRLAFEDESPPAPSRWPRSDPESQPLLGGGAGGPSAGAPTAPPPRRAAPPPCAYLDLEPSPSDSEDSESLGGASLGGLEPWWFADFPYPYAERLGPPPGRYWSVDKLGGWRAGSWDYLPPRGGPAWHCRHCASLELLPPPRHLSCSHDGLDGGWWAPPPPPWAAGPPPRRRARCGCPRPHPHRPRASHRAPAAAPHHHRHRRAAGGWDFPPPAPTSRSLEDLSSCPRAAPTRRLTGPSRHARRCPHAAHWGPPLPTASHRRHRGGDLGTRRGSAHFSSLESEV
T4 sequence (Q62645 28-1323, other chains not shown): as above
T1 sequence (Q00960 27-1482, other chains not shown): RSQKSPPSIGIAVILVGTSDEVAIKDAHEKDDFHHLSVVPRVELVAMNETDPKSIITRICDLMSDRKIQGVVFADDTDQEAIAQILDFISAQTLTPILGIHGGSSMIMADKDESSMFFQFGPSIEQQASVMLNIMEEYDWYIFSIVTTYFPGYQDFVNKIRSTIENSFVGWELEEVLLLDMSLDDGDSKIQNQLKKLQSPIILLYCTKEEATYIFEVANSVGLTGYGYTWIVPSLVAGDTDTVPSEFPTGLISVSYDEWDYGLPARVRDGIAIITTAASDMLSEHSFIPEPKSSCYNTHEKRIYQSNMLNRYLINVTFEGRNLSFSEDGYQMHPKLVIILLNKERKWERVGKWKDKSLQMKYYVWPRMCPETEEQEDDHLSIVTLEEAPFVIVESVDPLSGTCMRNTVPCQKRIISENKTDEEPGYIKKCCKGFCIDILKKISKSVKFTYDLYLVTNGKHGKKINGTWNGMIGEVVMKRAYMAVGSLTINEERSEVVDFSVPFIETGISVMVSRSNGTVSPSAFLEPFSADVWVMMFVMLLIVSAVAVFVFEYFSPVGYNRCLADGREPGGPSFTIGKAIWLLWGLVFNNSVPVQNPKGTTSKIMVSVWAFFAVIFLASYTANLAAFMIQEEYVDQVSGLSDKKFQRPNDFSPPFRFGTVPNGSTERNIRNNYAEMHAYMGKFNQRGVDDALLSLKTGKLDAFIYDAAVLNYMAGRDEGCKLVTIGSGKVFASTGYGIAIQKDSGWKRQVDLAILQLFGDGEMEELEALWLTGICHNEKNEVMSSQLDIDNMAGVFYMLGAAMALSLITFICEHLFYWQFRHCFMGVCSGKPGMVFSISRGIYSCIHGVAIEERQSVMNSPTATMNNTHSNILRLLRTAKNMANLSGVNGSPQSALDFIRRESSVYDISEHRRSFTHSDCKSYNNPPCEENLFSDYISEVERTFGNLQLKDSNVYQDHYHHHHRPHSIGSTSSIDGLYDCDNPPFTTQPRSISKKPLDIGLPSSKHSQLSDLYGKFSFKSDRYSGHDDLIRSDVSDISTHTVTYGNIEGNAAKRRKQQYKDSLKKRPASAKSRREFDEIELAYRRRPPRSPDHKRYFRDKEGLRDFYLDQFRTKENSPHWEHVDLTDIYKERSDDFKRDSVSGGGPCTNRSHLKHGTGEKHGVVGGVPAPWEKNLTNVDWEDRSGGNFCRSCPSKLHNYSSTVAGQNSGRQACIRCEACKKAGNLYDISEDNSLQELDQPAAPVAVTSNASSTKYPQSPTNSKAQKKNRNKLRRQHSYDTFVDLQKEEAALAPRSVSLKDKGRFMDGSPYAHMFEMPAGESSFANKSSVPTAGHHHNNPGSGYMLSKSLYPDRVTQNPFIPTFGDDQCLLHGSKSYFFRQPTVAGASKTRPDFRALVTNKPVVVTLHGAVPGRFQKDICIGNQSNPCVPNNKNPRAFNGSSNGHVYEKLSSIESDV
T3 sequence (Q00959 23-1464, other chains not shown): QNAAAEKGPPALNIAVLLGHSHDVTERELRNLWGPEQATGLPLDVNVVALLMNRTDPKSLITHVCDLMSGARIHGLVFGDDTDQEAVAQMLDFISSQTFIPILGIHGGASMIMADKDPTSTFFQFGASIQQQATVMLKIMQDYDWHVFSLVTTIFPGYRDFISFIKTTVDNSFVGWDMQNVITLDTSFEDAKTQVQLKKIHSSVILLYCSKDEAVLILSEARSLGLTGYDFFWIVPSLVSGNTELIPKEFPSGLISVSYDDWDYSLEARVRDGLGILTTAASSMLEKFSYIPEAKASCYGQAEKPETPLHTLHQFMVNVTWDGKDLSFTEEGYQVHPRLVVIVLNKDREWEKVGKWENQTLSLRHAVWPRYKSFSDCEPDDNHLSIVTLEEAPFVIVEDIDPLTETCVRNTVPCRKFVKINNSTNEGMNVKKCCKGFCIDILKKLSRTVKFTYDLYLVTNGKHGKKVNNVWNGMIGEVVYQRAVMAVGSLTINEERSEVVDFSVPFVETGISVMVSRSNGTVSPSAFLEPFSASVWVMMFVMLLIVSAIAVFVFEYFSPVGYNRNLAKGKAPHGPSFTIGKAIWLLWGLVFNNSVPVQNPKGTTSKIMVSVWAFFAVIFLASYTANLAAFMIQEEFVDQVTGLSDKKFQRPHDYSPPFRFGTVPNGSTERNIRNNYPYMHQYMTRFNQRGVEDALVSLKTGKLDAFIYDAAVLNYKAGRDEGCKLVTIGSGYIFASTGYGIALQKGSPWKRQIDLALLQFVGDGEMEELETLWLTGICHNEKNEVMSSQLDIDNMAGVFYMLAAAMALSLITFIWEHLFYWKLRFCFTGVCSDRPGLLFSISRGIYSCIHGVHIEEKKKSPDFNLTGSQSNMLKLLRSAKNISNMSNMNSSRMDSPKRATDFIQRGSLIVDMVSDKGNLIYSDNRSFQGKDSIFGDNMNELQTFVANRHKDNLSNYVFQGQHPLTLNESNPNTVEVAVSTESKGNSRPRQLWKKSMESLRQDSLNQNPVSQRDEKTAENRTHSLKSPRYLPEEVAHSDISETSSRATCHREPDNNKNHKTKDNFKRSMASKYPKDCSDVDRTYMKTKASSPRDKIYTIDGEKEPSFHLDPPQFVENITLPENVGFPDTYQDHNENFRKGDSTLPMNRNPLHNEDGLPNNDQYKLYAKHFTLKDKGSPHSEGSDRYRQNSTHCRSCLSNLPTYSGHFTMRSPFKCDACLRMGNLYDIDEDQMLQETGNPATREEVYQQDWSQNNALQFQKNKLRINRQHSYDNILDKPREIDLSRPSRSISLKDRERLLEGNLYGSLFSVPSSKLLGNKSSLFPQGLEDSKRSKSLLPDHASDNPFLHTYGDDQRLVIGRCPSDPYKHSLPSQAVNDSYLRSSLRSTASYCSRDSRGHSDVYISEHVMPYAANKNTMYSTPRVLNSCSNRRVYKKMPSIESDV

| remaining activity at 30 µM (rat GluN1/GluN2B [1]) | IC50 (rat GluN1/GluN2B [1]) | remaining activity at 30 µM (rat GluN1/GluN2C [2]) | IC50 (rat GluN1/GluN2C [2]) | remaining activity at 30 µM (rat GluN1/GluN2A [3]) | IC50 (rat GluN1/GluN2A [3]) | remaining activity at 30 µM (rat GluN1/GluN2D [4]) | IC50 (rat GluN1/GluN2D [4]) | Subunit Selectivity 2A IC50/2D IC50 (rat GluN1/GluN2D [5]) | Subunit Selectivity 2B IC50/2D IC50 (rat GluN1/GluN2D [5]) | Current ratio I/Icontrol (mean ± SEM, %) GluN2B (rat GluN1/GluN2B [6]) | Current ratio I/Icontrol (mean ± SEM, %) GluN2C (rat GluN1/GluN2C [7]) | Current ratio I/Icontrol (mean ± SEM, %) GluN2A (rat GluN1/GluN2A [8]) | Current ratio I/Icontrol (mean ± SEM, %) GluN2D (rat GluN1/GluN2D [5]) | SMILES |
| --- | --- | --- | --- | --- | --- | --- | --- | --- | --- | --- | --- | --- | --- | --- |
| 58 ± 2% | 47 µM | 2.7 ± 0.32% | 1.9 µM | 71 ± 5% | 42 µM | 7.9 ± 2.9% | 2.6 µM |  |  |  |  |  |  | Cc1[nH]c(=O)c(C2=NN(C(=O)C(F)(F)CC(=O)O)C(c3ccc(Cl)cc3)C2)c(-c2ccc(Cl)cc2)c1C (centres unmarked) [Compound 56, 4-[3-(4-Chlorophenyl)-5-[4-(4-chlorophenyl)-5,6-dimethyl-2-oxo-1H-pyridin-3-yl]-3,4-dihydropyrazol-2-yl]-3,3-difluoro-4-oxo-butanoic acid] |
| 100 ± 2.7% |  | 111 ± 1.9% |  | 100 ± 2% |  | 110 ± 3.1% |  |  |  |  |  |  |  | Cc1cc(-c2ccc(Cl)cc2)c(C2=NN(C(=O)C(F)(F)CC(=O)O)C(c3ccc(Cl)cc3)C2)cn1 (centres unmarked) [Compound 73, 4-[3-(4-Chlorophenyl)-5-[4-(4-chlorophenyl)-6-methyl-3-pyridyl]-3,4-dihydropyrazol-2-yl]-3,3-difluoro-4-oxo-butanoic acid] |
| 71 ± 0.9% | 67 µM | 6.6 ± 0.9% | 2.1 µM | 49 ± 7.3% | 45 µM | 3.8 ± 0.6% | 1.3 µM | 35 | 52 |  |  |  |  | O=C(O)CC(F)(F)C(=O)N1N=C(c2c(-c3ccc(Cl)cc3)c3cccnc3[nH]c2=O)CC1c1ccc(Cl)cc1 (centres unmarked) [Compound 88, 4-[3-(4-Chlorophenyl)-5-[4-(4-chlorophenyl)-2-oxo-1H-1,8-naphthyridin-3-yl]-3,4-dihydropyrazol-2-yl]-3,3-difluoro-4-oxo-butanoic acid] |
| 48 ± 1.9% |  | 2.3 ± 0.5% |  | 29 ± 4.1% |  | 2.4 ± 1.6% |  | 42 | 56 |  |  |  |  | O=C(CCc1nnn[nH]1)N1N=C(c2c(-c3ccc(Cl)cc3)c3ccccc3[nH]c2=O)CC1c1ccc(Cl)cc1 (centres unmarked) [Compound 109, 4-(4-Chlorophenyl)-3-[3-(4-chlorophenyl)-2-[3-(1H-tetrazol-5-yl)propanoyl]-3,4-dihydropyrazol-5-yl]-1H-quinolin-2-one] |
|  |  |  | 2.1 µM |  |  |  | 0.8 µM |  |  | 82 ± 1.7^c (n = 2, 8) % | 18 ± 1.0^c (n = 3, 11) % | 77 ± 4.8^c (n = 2, 7) % | 7.4 ± 0.9^c (n = 3, 10) % | O=C(O)CC(F)(F)C(=O)N1N=C(c2c(-c3ccc(Cl)cc3)c3ccncc3[nH]c2=O)CC1c1ccc(Cl)cc1 (centres unmarked) [Compound 120, 4-[3-(4-Chlorophenyl)-5-[4-(4-chlorophenyl)-2-oxo-1H-1,7-naphthyridin-3-yl]-3,4-dihydropyrazol-2-yl]-3,3-difluoro-4-oxo-butanoic acid] |
|  |  |  |  |  |  |  |  |  |  | 94 ± 1.7^c (n = 2, 8) % | 71 ± 4.8^c (n = 2, 8) % | 96 ± 1.8^c (n = 2, 8) % | 67 ± 5.1^c (n = 2, 8) % | O=C(CCc1nccs1)N1N=C(c2c(-c3ccc(Cl)cc3)c3ccccc3[nH]c2=O)CC1c1ccc(Cl)cc1 (centres unmarked) [Compound 123, 4-(4-Chlorophenyl)-3-[3-(4-chlorophenyl)-2-(3-thiazol-2-ylpropanoyl)-3,4-dihydropyrazol-5-yl]-1H-quinolin-2-one] |
